Laboratory results as given in patent publication US6737383B1, “Herbicidal oxadiazolidines” (priority 1999, dated 2004).

Legend:
giant foxtail = assay: Test B pre/postemergence giant foxtail; type: in vivo, Setaria faberii
In short: (§1)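 Test chemicals in a non-phytotoxic solvent mixture with surfactant were sprayed preemergence onto planted seeds and postemergence onto plants 2 to 18 cm tall (1- to 4-leaf stage). After twelve to sixteen days in a greenhouse, injury was visually rated against untreated controls from 0 (no effect) to 10 (complete control).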

morningglory = assay: Test B pre/postemergence morningglory; type: in vivo, Ipomoea hederacea
In short: as §1

pigweed = assay: Test B pre/postemergence pigweed; type: in vivo, Amaranthus retroflexus
In short: as §1

rape = assay: Test B pre/postemergence rape; type: in vivo, Brassica napus
In short: as §1

[1] = Postemergence, Rate 62 g/ha, scale 0 to 10, 0 is no effect, 10 is complete control
[2] = Postemergence, Rate 250 g/ha, scale 0 to 10, 0 no effect, 10 complete control
[3] = Preemergence, Rate 62 g/ha, scale 0 to 10 (0 no effect, 10 complete control)
[4] = Preemergence, Rate 125 g/ha, scale 0 to 10 (0 no effect, 10 complete control)
[5] = Preemergence, Rate 250 g/ha, scale of 0 to 10 where 0 is no effect and 10 is complete control
[6] = Preemergence, Rate 500 g/ha, scale 0 (no effect) to 10 (complete control)
[7] = Rate 125 g/ha, Postemergence, scale 0 to 10, 0 no effect, 10 complete control
[8] = Rate 500 g/ha, Postemergence, scale 0 to 10, 0 no effect, 10 complete control
[9] = Preemergence, Rate 62 g/ha, scale of 0 to 10 where 0 is no effect and 10 is complete control
[10] = Preemergence, Rate 500 g/ha, scale of 0 to 10 where 0 is no effect and 10 is complete control
[11] = Rate 62 g/ha, Postemergence, scale 0 to 10 (0 no effect, 10 complete control)
[12] = Rate 125 g/ha, Postemergence, scale of 0 to 10 where 0 is no effect and 10 is complete control
[13] = Rate 250 g/ha, Postemergence, scale of 0 to 10 where 0 is no effect and 10 is complete control
[14] = Postemergence, Rate 125 g/ha, scale of 0 to 10 where 0 is no effect and 10 is complete control
[15] = Preemergence, Rate 500 g/ha, scale 0 to 10 (0 no effect, 10 complete control)
[16] = Rate 62 g/ha, Postemergence, scale of 0 to 10 where 0 is no effect and 10 is complete control
[17] = Postemergence, Rate 1000 g/ha, scale 0 to 10 (0 no effect, 10 complete control)
[18] = Rate 500 g/ha, Postemergence, 0 to 10 scale (0 no effect, 10 complete control)
[19] = Rate 1000 g/ha, Preemergence, scale 0 to 10 (0 no effect, 10 complete control)

CCN(Cc1ccccc1)C(=O)n1oc(=O)n(-c2ccccc2C)c1=O [Compound 71]
Giant foxtail plant response rating (giant foxtail; [1]): 0 | Giant foxtail plant response rating (giant foxtail; [2]): 0 | Giant foxtail plant response rating (giant foxtail; [3]): 0 | Plant response rating, Giant foxtail (giant foxtail; [4]): 0 | Plant response rating, Giant foxtail (giant foxtail; [5]): 0 | Giant foxtail plant response rating (giant foxtail; [6]): 0 | Giant foxtail plant response rating (giant foxtail; [7]): 0 | Giant foxtail plant response rating (giant foxtail; [8]): 0 | Morningglory plant response rating (morningglory; [1]): 0 | Morningglory plant response rating (morningglory; [2]): 0 | Morningglory plant response rating (morningglory; [3]): 0 | Plant response rating, Morningglory (morningglory; [4]): 0 | Plant response rating, Morningglory (morningglory; [5]): 0 | Morningglory plant response rating (morningglory; [6]): 0 | Morningglory plant response rating (morningglory; [7]): 0 | Morningglory plant response rating (morningglory; [8]): 0 | Redroot pigweed plant response rating (pigweed; [1]): 0 | Redroot pigweed plant response rating (pigweed; [2]): 0 | Redroot pigweed plant response rating (pigweed; [3]): 0 | Plant response rating, Redroot pigweed (pigweed; [4]): 0 | Plant response rating, Redroot pigweed (pigweed; [5]): 0 | Redroot pigweed plant response rating (pigweed; [6]): 0 | Redroot pigweed plant response rating (pigweed; [7]): 0 | Redroot pigweed plant response rating (pigweed; [8]): 0 | Rape plant response rating (rape; [1]): 0 | Rape plant response rating (rape; [2]): 0 | Rape plant response rating (rape; [3]): 0 | Plant response rating, Rape (rape; [4]): 0 | Plant response rating, Rape (rape; [5]): 0 | Rape plant response rating (rape; [6]): 0 | Rape plant response rating (rape; [7]): 0 | Rape plant response rating (rape; [8]): 0

CC(C)N(C(=O)n1oc(=O)n(Cc2ccccc2-c2ccccc2)c1=O)c1ccc(F)cc1 [Compound 313]
Giant foxtail plant response rating (giant foxtail; [9]): 0 | Giant foxtail plant response rating (0 to 10 scale) (giant foxtail; Preemergence, Rate 125 g/ha): 0 | Giant foxtail plant response rating (giant foxtail; [5]): 0 | Giant foxtail plant response rating (giant foxtail; [10]): 0 | Giant foxtail plant response rating (giant foxtail; [11]): 0 | Giant foxtail plant response rating (giant foxtail; [12]): 0 | Plant response rating, Giant foxtail (giant foxtail; [13]): 0 | Morningglory plant response rating (morningglory; [9]): 0 | Morningglory plant response rating (0 to 10 scale) (morningglory; Preemergence, Rate 125 g/ha): 0 | Morningglory plant response rating (morningglory; [5]): 0 | Morningglory plant response rating (morningglory; [10]): 0 | Morningglory plant response rating (morningglory; [11]): 2 | Morningglory plant response rating (morningglory; [12]): 3 | Plant response rating, Morningglory (morningglory; [13]): 3 | Redroot pigweed plant response rating (pigweed; [9]): 0 | Redroot pigweed plant response rating (0 to 10 scale) (pigweed; Preemergence, Rate 125 g/ha): 0 | Redroot pigweed plant response rating (pigweed; [5]): 0 | Redroot pigweed plant response rating (pigweed; [10]): 0 | Redroot pigweed plant response rating (pigweed; [11]): 0 | Redroot pigweed plant response rating (pigweed; [12]): 0 | Plant response rating, Redroot pigweed (pigweed; [13]): 2 | Rape plant response rating (rape; [9]): 0 | Rape plant response rating (0 to 10 scale) (rape; Preemergence, Rate 125 g/ha): 0 | Rape plant response rating (rape; [5]): 0 | Rape plant response rating (rape; [10]): 0 | Rape plant response rating (rape; [11]): 0 | Rape plant response rating (rape; [12]): 0 | Plant response rating, Rape (rape; [13]): 0

CC(C)N(C(=O)n1oc(=O)n(Cc2ccccc2)c1=O)c1ccc(Cl)cc1 [Compound 106]
Giant foxtail plant response rating (giant foxtail; [14]): 2 | Giant foxtail plant response rating (giant foxtail; [2]): 3 | Giant foxtail plant response rating (giant foxtail; [3]): 2 | Plant response rating, Giant foxtail (giant foxtail; [4]): 5 | Plant response rating, Giant foxtail (giant foxtail; [5]): 10 | Giant foxtail plant response rating (giant foxtail; [15]): 10 | Giant foxtail plant response rating (giant foxtail; [16]): 0 | Giant foxtail plant response rating (giant foxtail; [8]): 3 | Morningglory plant response rating (morningglory; [14]): 7 | Morningglory plant response rating (morningglory; [2]): 8 | Morningglory plant response rating (morningglory; [3]): 0 | Plant response rating, Morningglory (morningglory; [4]): 0 | Plant response rating, Morningglory (morningglory; [5]): 0 | Morningglory plant response rating (morningglory; [15]): 0 | Morningglory plant response rating (morningglory; [16]): 6 | Morningglory plant response rating (morningglory; [8]): 10 | Redroot pigweed plant response rating (pigweed; [14]): 0 | Redroot pigweed plant response rating (pigweed; [3]): 0 | Plant response rating, Redroot pigweed (pigweed; [4]): 0 | Plant response rating, Redroot pigweed (pigweed; [5]): 0 | Redroot pigweed plant response rating (pigweed; [15]): 4 | Redroot pigweed plant response rating (pigweed; [16]): 0 | Plant response rating, Redroot pigweed (pigweed; Rate 250 g/ha, Postemergence, scale 0 to 10, 0 is no effect, 10 is complete control): 0 | Redroot pigweed plant response rating (pigweed; [8]): 6 | Rape plant response rating (rape; [14]): 0 | Rape plant response rating (rape; [2]): 0 | Rape plant response rating (rape; [3]): 0 | Plant response rating, Rape (rape; [4]): 0 | Plant response rating, Rape (rape; [5]): 0 | Rape plant response rating (rape; [15]): 2 | Rape plant response rating (rape; [16]): 0 | Rape plant response rating (rape; [8]): 0

CCc1cccc(CC)c1-n1c(=O)on(C(=O)N(c2ccc(F)cc2)C(C)C)c1=O [Compound 304]
Giant foxtail plant response rating (giant foxtail; [9]): 0 | Giant foxtail plant response rating (0 to 10 scale) (giant foxtail; Preemergence, Rate 125 g/ha): 4 | Giant foxtail plant response rating (giant foxtail; [5]): 6 | Giant foxtail plant response rating (giant foxtail; [10]): 6 | Giant foxtail plant response rating (giant foxtail; [11]): 0 | Giant foxtail plant response rating (giant foxtail; [12]): 0 | Plant response rating, Giant foxtail (giant foxtail; [13]): 0 | Morningglory plant response rating (morningglory; [9]): 0 | Morningglory plant response rating (0 to 10 scale) (morningglory; Preemergence, Rate 125 g/ha): 0 | Morningglory plant response rating (morningglory; [5]): 0 | Morningglory plant response rating (morningglory; [10]): 0 | Morningglory plant response rating (morningglory; [11]): 3 | Morningglory plant response rating (morningglory; [12]): 3 | Plant response rating, Morningglory (morningglory; [13]): 3 | Redroot pigweed plant response rating (pigweed; [9]): 0 | Redroot pigweed plant response rating (0 to 10 scale) (pigweed; Preemergence, Rate 125 g/ha): 0 | Redroot pigweed plant response rating (pigweed; [5]): 0 | Redroot pigweed plant response rating (pigweed; [10]): 0 | Redroot pigweed plant response rating (pigweed; [11]): 3 | Redroot pigweed plant response rating (pigweed; [12]): 3 | Plant response rating, Redroot pigweed (pigweed; [13]): 5 | Rape plant response rating (rape; [9]): 0 | Rape plant response rating (0 to 10 scale) (rape; Preemergence, Rate 125 g/ha): 0 | Rape plant response rating (rape; [5]): 0 | Rape plant response rating (rape; [10]): 0 | Rape plant response rating (rape; [11]): 0 | Rape plant response rating (rape; [12]): 0 | Plant response rating, Rape (rape; [13]): 0

CCN(CC)C(=O)n1oc(=O)n(-c2ccc(F)cc2)c1=O [Compound 3]
Giant foxtail plant response rating (giant foxtail; [2]): 3 | Giant foxtail plant response rating (giant foxtail; [17]): 8 | Plant response rating, Giant foxtail (giant foxtail; [4]): 0 | Plant response rating, Giant foxtail (giant foxtail; [5]): 1 | Giant foxtail plant response rating (giant foxtail; [6]): 8 | Giant foxtail plant response rating (giant foxtail; [7]): 0 | Giant foxtail plant response rating (giant foxtail; [18]): 7 | Plant response rating, Giant foxtail (giant foxtail; [19]): 10 | Morningglory plant response rating (morningglory; [2]): 0 | Morningglory plant response rating (morningglory; [17]): 0 | Plant response rating, Morningglory (morningglory; [4]): 0 | Plant response rating, Morningglory (morningglory; [5]): 0 | Morningglory plant response rating (morningglory; [6]): 0 | Morningglory plant response rating (morningglory; [7]): 0 | Morningglory plant response rating (morningglory; [18]): 0 | Plant response rating, Morningglory (morningglory; [19]): 0 | Redroot pigweed plant response rating (pigweed; [2]): 0 | Redroot pigweed plant response rating (pigweed; [17]): 0 | Plant response rating, Redroot pigweed (pigweed; [4]): 0 | Plant response rating, Redroot pigweed (pigweed; [5]): 0 | Redroot pigweed plant response rating (pigweed; [6]): 0 | Redroot pigweed plant response rating (pigweed; [7]): 0 | Redroot pigweed plant response rating (pigweed; [18]): 0 | Plant response rating, Redroot pigweed (pigweed; [19]): 0 | Rape plant response rating (rape; [2]): 0 | Rape plant response rating (rape; [17]): 0 | Plant response rating, Rape (rape; [4]): 0 | Plant response rating, Rape (rape; [5]): 0 | Rape plant response rating (rape; [6]): 0 | Rape plant response rating (rape; [7]): 0 | Rape plant response rating (rape; [18]): 0 | Plant response rating, Rape (rape; [19]): 0
